Laboratory results as given in patent US12565489B2, “Heterocyclyl pyrimidines and triazines as novel fungicides” (Bayer Aktiengesellschaft, priority 2020, dated 2026).

Legend:
Alternaria alternata = Alternaria alternata in vitro cell test; assay type: cell-based; conditions: 120 h, 20 ppm of active ingredient, 5 days incubation, liquid culture, spectrometric measurement of mycelium growth, read-out: efficacy (inhibition of fungal growth)
Protocol: • Solvent: DMSO • Culture medium: 14.6 g anhydrous D-glucose (VWR), 7.1 g Mycological Peptone (Oxoid), 1.4 g granulated Yeast Extract (Merck), QSP 1 liter • Inoculum: spore suspension Fungicides were solubilized in DMSO and the solution used to prepare the required range of concentrations. […] A spore suspension of A. alternata was prepared and diluted to the desired spore density. Fungicides were evaluated for their ability to inhibit spore germination and mycelium growth in liquid culture assay. The compounds were added in the desired concentration to the culture medium with spores. After 5 days incubation, fungi-toxicity of compounds was determined by spectrometric measurement of mycelium growth. Inhibition of fungal growth was determined by comparing the absorbance values in wells containing the fungicides with the absorbance in control wells without fungicides.

Pyricularia oryzae = experiment: microbe, parasite or virus in culture; assay type: cell-based; conditions: 120 h, read-out: efficacy (inhibition of fungal growth)
[1] = system: Colletotrichum lindemuthianum; experiment: In vivo preventive test on Colletotrichum lindemuthianum (leaf spot on bean); conditions: 168 h, 500 ppm of active ingredient, preventive spray on young bean plants, evaluated 7 days after inoculation, read-out: efficacy
Protocol: (§1) The active ingredients were made soluble and homogenized in a mixture of Dimethyl sulfoxide/Acetone//Tween®80 and then diluted in water to the desired concentration. The young plants of bean were treated by spraying the active ingredient prepared as described above. Control plants were treated only with an aqueous solution of Acetone/Dimethyl sulfoxide/Tween® 80. After 24 hours, the plants were contaminated by spraying the leaves with an aqueous suspension of Colletotrichum lindemuthianum spores.

Botrytis cinerea = experiment: In vivo preventive test on Botrytis cinerea (grey mould); conditions: 500 ppm of active ingredient, preventive spray on young gherkin or cabbage plants, evaluated 4 to 5 days after inoculation, read-out: efficacy
Protocol: as §1, with “gherkin or cabbage” for “bean”, “Botrytis cinerea” for “Colletotrichum lindemuthianum”

SMILES	inhibition at 20 ppm (Alternaria alternata)	inhibition at 20 ppm (Pyricularia oryzae)	pest or weed control at 500 ppm [1]	pest or weed control at 500 ppm (Botrytis cinerea)
Cc1ncc(Oc2cccc(C(F)(F)F)c2)c(C2=NOC[C@@H](Cc3ccc(C(F)F)cc3Cl)N2)n1 (racemic) [Compound I-033]	90 to 100%	70 to 79%	80 to 89%	90 to 100%
Cc1ccc(C[C@@H]2CON=C(c3nc(C)ncc3Oc3cccc(Cl)c3F)N2)c(Cl)c1 (racemic) [Compound I-005]	90 to 100%	80 to 89%	90 to 100%	90 to 100%
Cc1cccc(Oc2cnc(C)nc2C2=NOC[C@@H](Cc3ccc(C)cc3C)N2)c1 (racemic) [Compound I-004]	90 to 100%	90 to 100%	90 to 100%	90 to 100%
Cc1ccc(C[C@@H]2CON=C(c3nc(C)ncc3Oc3cccc(Br)c3)N2)c(C)c1 (racemic) [Compound I-009]	90 to 100%	90 to 100%	90 to 100%	90 to 100%
C=Cc1cccc(Oc2cnc(C)nc2C2=NOC[C@@H](Cc3ccc(C)cc3C)N2)c1 (racemic) [Compound I-019]	90 to 100%	90 to 100%	90 to 100%	90 to 100%
Cc1ncc(Oc2cccc(C(F)(F)F)c2)c(C2=NOCC(Cc3ccc(C4CC4)cc3C)N2)n1 (racemic) [Compound I-029, (5RS)-5-[(4-cyclopropyl-2-methyl-phenyl)methyl]-3-[2-methyl-5-[3-(trifluoromethyl)phenoxy]pyrimidin-4-yl]-5,6-dihydro-4H-1,2,4-oxadiazine]	90 to 100%	90 to 100%	90 to 100%	90 to 100%
Cc1ccc(C[C@@H]2CON=C(c3nc(C)ncc3Oc3cccc(C4CC4)c3F)N2)c(Cl)c1 (racemic) [Compound I-008]	90 to 100%	90 to 100%	90 to 100%	90 to 100%
Cc1ccc(C[C@@H]2CON=C(c3nc(C)ncc3Oc3cccc(Cl)c3)N2)c(Cl)c1 (racemic) [Compound I-018]	90 to 100%	90 to 100%	90 to 100%	90 to 100%
C=Cc1ccc(C[C@@H]2CON=C(c3nc(C)ncc3Oc3cccc(C(F)(F)F)c3)N2)c(C)c1 (racemic) [Compound I-006]	90 to 100%	70 to 79%	90 to 100%	80 to 89%
Cc1ncc(Oc2cccc(C(F)(F)F)c2)c(C2=NOC[C@@H](Cc3ccc(SC(F)(F)F)cc3)N2)n1 (racemic) [Compound I-030]	80 to 89%		70 to 79%	90 to 100%
C#Cc1ccc(CC2CON=C(c3nc(C)ncc3Oc3cccc(C(F)(F)F)c3)N2)c(C)c1 (racemic) [Compound I-026, (5RS)-5-[(4-ethynyl-2-methyl-phenyl)methyl]-3-[2-methyl-5-[3-(trifluoromethyl)phenoxy]pyrimidin-4-yl]-5,6-dihydro-4H-1,2,4-oxadiazine]	90 to 100%	90 to 100%	90 to 100%	90 to 100%
Cc1ncc(Oc2cccc(C(F)(F)F)c2)c(C2=NOCC(Cc3ccc(Br)cc3C)N2)n1 (racemic) [Compound I-021, (5RS)-5-[(4-bromo-2-methyl-phenyl)methyl]-3-[2-methyl-5-[3-(trifluoro-methyl)phenoxy]pyrimidin-4-yl]-5,6-dihydro-4H-1,2,4-oxadiazine]	90 to 100%	90 to 100%	90 to 100%	90 to 100%
Cc1ccc(CC2CON=C(c3nc(C)ncc3Oc3cccc(C(F)(F)F)c3)N2)c(C)c1 (racemic) [Compound I-002, (5RS)-5-(2,4-dimethylbenzyl)-3-{2-methyl-5-[3-(trifluoro-methyl)phenoxy]pyrimidin-4-yl}-5,6-dihydro-4H-1,2,4-oxadiazine]	90 to 100%	90 to 100%	90 to 100%	90 to 100%
Cc1ccc(C[C@@H]2CON=C(c3nc(C)ncc3Oc3cccc(C4CC4)c3F)N2)c(C)c1 (racemic) [Compound I-016]	90 to 100%	90 to 100%	90 to 100%	90 to 100%
C#Cc1cccc(Oc2cnc(C)nc2C2=NOC[C@@H](Cc3ccc(C)cc3C)N2)c1 (racemic) [Compound I-025]	90 to 100%	90 to 100%	90 to 100%	90 to 100%
Cc1ccc(C[C@@H]2CON=C(c3nc(C)ncc3Oc3cccc(C(F)(F)F)c3)N2)c(Cl)c1 (racemic) [Compound I-013]	90 to 100%		90 to 100%	90 to 100%
Cc1ccc(CC2CON=C(c3nc(C4CC4)ncc3Oc3cccc(C(F)(F)F)c3)N2)c(C)c1 (racemic) [Compound I-001, (5RS)-3-{2-cyclopropyl-5-[3-(trifluoro-methyl)phenoxy]pyrimidin-4-yl}-5-(2,4-dimethylbenzyl)-5,6-dihydro-4H-1,2,4-oxadiazine]	90 to 100%	80 to 89%	90 to 100%	90 to 100%
CSc1ncc(Oc2cccc(C(F)(F)F)c2)c(C2=NOC[C@@H](Cc3ccc(C)cc3C)N2)n1 (racemic) [Compound I-017]	70 to 79%		80 to 89%	90 to 100%
COc1cccc(Oc2cnc(C)nc2C2=NOC[C@@H](Cc3ccc(C)cc3C)N2)c1 (racemic) [Compound I-032]	90 to 100%	80 to 89%	90 to 100%	90 to 100%
Cc1ccc(C[C@@H]2CON=C(c3nc(C)ncc3Oc3cccc(Cl)c3)N2)c(C)c1 (racemic) [Compound I-023]	90 to 100%	90 to 100%	90 to 100%	90 to 100%
Cc1ccc(C[C@@H]2CON=C(c3nc(C)ncc3Oc3cccc(C4CC4)c3)N2)c(C)c1 (racemic) [Compound I-024]	90 to 100%	90 to 100%	90 to 100%	90 to 100%
